Reference: US20230123635A1, “Compositions and Methods for Detecting Molecular Targets on Chromosomal DNA” (New England Biolabs, Inc., priority 2020, published 2023)

Experiments:
[1] = test system: antibody-Protein A/G complex; experiment: Effect of heparin on the antibody-Protein A/G complex (magnetic beads, SDS gel); format: binding; conditions: 0.125, 0.25, 0.5 and 1 mg/ml Heparin, 30 minutes, room temperature, Protein A/G magnetic beads with IgG, sodium salt
Excerpt: The numbers on the top indicate added heparin quantity in the reaction mgs/ml.
Antibody heavy and light chains that are bound to Protein A/G can be released by boiling and resolved on an SDS gel (B). Any antibody that was free in solution having been eluted or displaced by heparin from Protein A/G could be visualized without boiling (E).
To determine the effect of heparin on the formation of the antibody-Protein A/G complex, 5 mgs of immobilized and covalently cross-linked protein A/G magnetic beads were bound to 50 μgs of IgG molecules in a 50 μl reaction volume containing 1×PBST at room temperature for 30 minutes. The complex was washed 3 times using 1 ml of 1×PBST and incubated with 0.125, 0.25, 0.5 and 1 mg/ml Heparin for 30 minutes at room temperature in 25 μl total volume. The bead-bound (B) and unbound or bead elution (E) fractions were collected, SDS sample buffer (New England Biolabs, Ipswich, Mass.) was added and the samples were incubated at 95° C. for 5 minutes. Both B and E samples were resolved on tricine 10% acrylamide gel and stained for protein.

Nt.CviPII-Protein A = experiment: Inhibition of the nicking activity of Nt.CviPII-Protein A fusion by heparin sodium salt; format: biochemical; conditions: 2.5 units Nt.CviPII-Protein A, 0.5 μg pUC19 DNA, NEBuffer 2, 40 minutes 37° C.
Procedure: In lanes 1-9, 2.5 units of NEFP was added to 0.5 μgs of plasmid DNA in the presence of increasing amounts of heparin (0.15-10 mg/ml). Digestion was not observed when 0.3 mg heparin/ml or greater amounts are present.
To determine the effect of heparin sodium salt on the inhibition of nicking activities of Nt.CviPII-Protein A fusion, reaction tubes containing 10, 5, 2.5, 1.25, 0.62, 0.31, 0.15, and 0 mg/ml heparin, sodium salt were added to a 50 μl reaction, consisting of 5 μl 10×NEBuffer 2, 2.5 units Nt.CviPII-Protein A (as described in Example 1(B)), and 0.5 μg pUC19 DNA and incubated for 40 minutes 37° C. 10 μl of DNA loading dye mix (5×) was added to the samples and were resolved on a 10% polyacrylamide gel. The gel was stained with SYBR® Green (Molecular Probes, Eugene, Oreg.) and scanned on a Typhoon® imager (GE Healthcare Bio-Sciences, Marlborough, Mass.).

[2] = test system: DNA-Nt.CviPII-Protein A complex; experiment: Gel-shift assay: dissociation of the DNA-Nt.CviPII-Protein A complex by heparin; format: binding; conditions: 3.2 μM Nt.CviPII-Protein A, NEBuffer 2 without magnesium, 50 μl
Procedure: Increasing amounts of heparin disrupts complex formation. Nicking activity is prevented by the absence of magnesium ions in the buffer.
From left to right: C is a control that is DNA in the absence of a NEFP or heparin. 0 is a control in which nicking endonuclease was added to DNA in the absence of heparin. The DNA-NEFP complex (DNA-Nt.CviPII-Protein A complex) is seen as a band at the top of the lane.
To establish that the inhibitory effect of heparin, sodium salt in untethered Nt.CviPII-Protein A fusion activity was due to selective dissociation between DNA substrate and fusion enzyme, a gel-shift assay was performed. Double stranded DNA substrate containing constant amounts of Nt.CviPII binding domains (CCA, 5′[…]-F, F=fluorescein (SEQ ID NO:9)) and 3.2 μM Nt.CviPII-Protein A fusion were combined in the presence of 1×NEBuffer 2 in the absence of magnesium for 30 minutes at room temperature to enable an enzyme-substrate complex to be formed. Increasing amounts of heparin, sodium salt (0, 2.3, 4.6, 1, 20, 42, 83, 166, 330 μg/ml) was added to the total 50 μl reaction volume. It was observed that a heparin concentration of greater than 0.2 mgs/ml (at least […]) enabled complete dissociation of the DNA-Nt.CviPII-Protein A complex as observed by the appearance of bands corresponding to DNA alone in a native 6% retardation gel (Thermo Fisher Scientific, Waltham, Mass.). […]

[3] = test system: pBR322 circular double stranded DNA; experiment: Nicking activity of Protein G/A-gHNH fusion on plasmid DNA (agarose gel); format: biochemical; conditions: 50 μl, 37° C., 1 hour; for amount of fusion enzyme giving complete nicking/digestion of DNA substrate: 1 μg pBR322, NEBuffer 2 with manganese ions (1 mM) instead of magnesium
Procedure: The nicking activity of Protein G-HNH was compared to a second non-fused nicking endonuclease (Nt.CviPII) (2 units) in the same gel to determine a generalized and consistent cleavage profile and was also compared to a control in the lane labeled 0 containing no nicking endonuclease either fused or unfused.
Protein G/A-gHNH fusion nicking activity was tested on pBR322 circular double stranded DNA using NEBuffer 2 in which magnesium ions were replaced by the same amount of manganese ions (1 mM). 1 μg of plasmid was used with 0.03 to 2 units of Protein G/A-gHNH fusion enzyme in a two-fold serial dilutions (2, 1, 0.5, 0.25, 0.125, 0.06, 0.03 units) in a total volume of 50 μl incubated at 37° C. for 1 hour. 10 μl of DNA loading dye mix (5×) was added to the nicked DNA. The nicked DNA samples were resolved on a 1% agarose gel and visualized under UV light. DNA fragment size was estimated along with 2 log DNA ladder (New England Biolabs, Ipswich, Mass.) and positive control Nt.CviPII (2 units) of the non-fused nicking endonuclease, (New England Biolabs, Ipswich, Mass.) digested pBR322 DNA (FIG. 1B). […] A representative figure supporting this conclusion is provided in FIG. 1B for Protein G-gHNH fusions.

Row | amount of fusion enzyme giving complete nicking/digestion of DNA substrate [3] [units] | amount of fusion enzyme giving complete nicking/digestion of DNA substrate ([3]; listed as Protein G-gHNH fusion) | amount of fusion enzyme giving partial digestion of DNA ([3]; 1 μg pBR322, NEBuffer 2 with manganese ions) [units] | Molecule | effect of heparin on antibody bound to Protein A/G ([1]; listed as Heparin) | effect of heparin on antibody bound to Protein A/G [1] | heparin concentration giving total inhibition of nicking (no digestion observed) (Nt.CviPII-Protein A) [mg/mL] | heparin concentration giving total inhibition of nicking (no digestion observed) (Nt.CviPII-Protein A; listed as Heparin sodium salt) [mg/mL] | heparin concentration enabling complete dissociation of the DNA-Nt.CviPII-Protein A complex (parenthesis) [2] | heparin concentration enabling complete dissociation of the DNA-Nt.CviPII-Protein A complex ([2]; native 6% retardation gel)
1 |  |  |  | heparin, sodium salt | cannot dissociate Protein A/G-antibody reaction | no elution or displacement of antibody occurred | ≥ 0.3 | 0.15 to 0.31 | at least 10 ng/μl | greater than 0.2 mgs/ml
2 | 0.25 | greater than 0.06 units | 0.03 | Protein G-gHNH: NEFP: Protein G-linker-gHNH nicking endonuclease (SEQ ID NO: 5) (protein) MKGETTTEAVDAATAEKVFKQYANDNGVDGEWTYDDATKTFTVTEKPEVIDASELTPAVTTYKLVINGKTLKGETTTEAVDAATAEKVFKQYANDNGVDGEWTYDDATKTFTVTEKPEVIDASELTPAVTTYKLVINGKTLKGETTTKAVDAETAEKAFKQYANDNGVDGVWTYDDATKTFTVTEGSATIVKKPLRPCCEFHCYNLTRERYCEEHRYKEKETQQDKNRYYDRFKRDKESTAFYRSKAWERLREQALMRDKGLCLHCKNNRKIKVADMVDHIIPIKVDPSLKLKLENLQSLCNPCHNRKTAEDKKKYG |  |  |  |  |  | 
